Experiment [1] deals with T1, human CSNK1D (Homo sapiens, UniProt P48730).
T1 construct: expressed in transfected cells
The experiment can be described thus: Whole Cell nBRET CSNK1D Binding Assay. The conditions noted are these: living CHO cells stably expressing human CSNK1D tagged with nanoluciferase; NanoBret tracer 130 nM; 2 hours at 37 C.

The target in experiment [2] is T2, human recombinant GST cleaved CSNK1D (Homo sapiens, UniProt P48730).
T2 construct: GST (cleaved yes); purchased University of Dundee clone DU 19064
T2 sequence (P48730 whole entry): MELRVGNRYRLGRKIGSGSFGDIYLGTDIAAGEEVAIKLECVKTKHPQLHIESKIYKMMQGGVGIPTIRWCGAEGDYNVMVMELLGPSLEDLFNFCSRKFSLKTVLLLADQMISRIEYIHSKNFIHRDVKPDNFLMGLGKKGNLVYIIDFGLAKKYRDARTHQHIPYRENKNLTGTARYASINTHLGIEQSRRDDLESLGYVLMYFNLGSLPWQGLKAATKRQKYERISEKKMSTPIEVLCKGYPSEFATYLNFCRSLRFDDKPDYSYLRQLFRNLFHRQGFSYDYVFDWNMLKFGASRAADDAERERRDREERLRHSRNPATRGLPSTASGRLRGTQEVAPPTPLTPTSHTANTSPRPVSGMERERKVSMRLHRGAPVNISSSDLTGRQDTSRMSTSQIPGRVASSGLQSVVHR
Briefly: Purified Enzyme Assay (ADP-Glo CSNK1D Kinase Assay). Type of experiment: biochemical. The following applies: 2 nM CSNK1D; peptide substrate 150 μM; ATP 20 μM; 45 minutes at room temperature. In a few lines: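 GST-cleaved human recombinant CSNK1D phosphorylates peptide PLSRTL-pS-VASLPGL with ATP; compounds added in dose-response, 45 min at room temperature. ADP formed measured by ADP-Glo luminescence and converted to percent activity.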

Structures are written as SMILES. pIC50: −log10 of the molar value.

T1 sequence (P48730 whole entry): as above

One may read the pIC50 as the IC50 on a negative log10 scale, so that one unit is a factor of ten. For `Fc1ccc(-c2nn3c(c2-c2cc(C(F)F)nc4[nH]ncc24)CCC3)nc1` [Example 222, 6-(Difluoromethyl)-4-[2-(5-fluoro-2-pyridyl)-5,6-dihydro-4H-pyrrolo[1,2-b]pyrazol-3-yl]-1H-pyrazolo[3,4-b]pyridine], the pIC50 in experiment [1] was 6.74; in experiment [2], 7.96.

In the case of `Fc1ccc(-c2nn3c(c2-c2ccnc4cn[nH]c24)CCC3)nc1` [Example 220, 7-[2-(5-Fluoro-2-pyridyl)-5,6-dihydro-4H-pyrrolo[1,2-b]pyrazol-3-yl]-1H-pyrazolo[4,3-b]pyridine], the pIC50 in experiment [1] is 5.83; in experiment [2], 7.00.

Take `C[C@H]1n2nc(-c3ccc(F)cc3)c(-c3ccnc4[nH]ncc34)c2COC1(C)C` (single isomer, unassigned) [Example 172]: the pIC50 was 7.27 in experiment [1] and 8.30 in experiment [2].

For the compound `C[C@@H]1OCc2c(-c3ccnc4[nH]ncc34)c(-c3ccc(F)cn3)nn2[C@H]1C` (stereo in doubt) [Example 119, (6*S,7*S)-2-(5-Fluoropyridin-2-yl)-6,7-dimethyl-3-(1H-pyrazolo[3,4-b]pyridin-4-yl)-6,7-dihydro-4H-pyrazolo[5,1-c][1,4]oxazine], the pIC50 is 6.12 in experiment [1] and 7.49 in experiment [2].

For `Cc1nc(-c2c(-c3ccc(F)cc3)nn3c2COC(C)(C(F)(F)F)C3)c2cn[nH]c2n1` (stereo not shown) [Example 422, 2-(4-Fluorophenyl)-6-methyl-3-(6-methyl-1H-pyrazolo[3,4-d]pyrimidin-4-yl)-6-(trifluoromethyl)-6,7-dihydro-4H-pyrazolo[5,1-c][1,4]oxazine], the values for the pIC50 in experiment [1] and in experiment [2] were 7.70 and 8.52, respectively.

Regarding `Cc1nc(-c2c(-c3ccc(F)cc3)nn3c2CC[C@@]2(C3)CC2(F)F)c2cn[nH]c2n1` (single isomer, unassigned) [Example 335, (*S)-2,2-Difluoro-2′-(4-fluorophenyl)-3′-(6-methyl-1H-pyrazolo[3,4-d]pyrimidin-4-yl)-4′,5′-dihydro-7′H-spiro[cyclopropane-1,6′-pyrazolo[1,5-a]pyridine]], the pIC50 in experiment [1] is 6.43; in experiment [2], 7.89.

On to `C[C@H]1CCc2c(-c3ccnc4[nH]ncc34)c(-c3ccc(F)cc3)nn21` [Example 15, 4-[(6S)-2-(4-Fluorophenyl)-6-methyl-5,6-dihydro-4H-pyrrolo[1,2-b]pyrazol-3-yl]-1H-pyrazolo[3,4-b]pyridine], for which the pIC50 in experiment [1] was 7.92; in experiment [2], 9.00.

Turning to `C[C@@H]1[C@@H](C)OCc2c(-c3ccnc4[nH]ncc34)c(-c3ccc(F)cn3)nn21` (stereo in doubt) [Example 118, (6*R,7*R)-2-(5-Fluoropyridin-2-yl)-6,7-dimethyl-3-(1H-pyrazolo[3,4-b]pyridin-4-yl)-6,7-dihydro-4H-pyrazolo[5,1-c][1,4]oxazine], the figures for the pIC50 in experiment [1] and in experiment [2] were 5.93 and 7.31, respectively.

As to `CC(=O)Nc1cc(-c2c(-c3ccc(F)cn3)nn3c2CC[C@@H]2C[C@@H]23)ccn1` (stereo in doubt) [Example 341, N-(4-((5a*R,6a*S)-2-(5-Fluoropyridin-2-yl)-5,5a,6,6a-tetrahydro-4H-cyclopropa[e]pyrazolo[1,5-a]pyridin-3-yl)pyridin-2-yl)acetamide], the pIC50 in experiment [1] was 7.62; in experiment [2] it was 8.70.

Turning to `Fc1ccc(-c2nn3c(c2-c2ccnc4[nH]ncc24)C(F)(F)CC3)nc1` [Example 14, 4-(4,4-Difluoro-2-(5-fluoropyridin-2-yl)-5,6-dihydro-4H-pyrrolo[1,2-b]pyrazol-3-yl)-1H-pyrazolo[3,4-b]pyridine], the pIC50 is 6.53 in experiment [1] and 7.57 in experiment [2].

`Cc1cc(-c2c(-c3ccc(F)cc3)nn3c2COC[C@@H]3C)c2cn[nH]c2n1` (single isomer, unassigned) [Example 93, (*S)-2-(4-Fluorophenyl)-7-methyl-3-(6-methyl-1H-pyrazolo[3,4-b]pyridin-4-yl)-6,7-dihydro-4H-pyrazolo[5,1-c][1,4]oxazine]: the pIC50 was 6.53 in experiment [1] and 8.00 in experiment [2].

For the compound `C[C@@]1(CF)CCc2c(-c3ccnc4[nH]nc(Cl)c34)c(-c3ccc(F)cn3)nn2C1` (single isomer, unassigned) [Example 291, (*R)-3-Chloro-4-(6-(fluoromethyl)-2-(5-fluoropyridin-2-yl)-6-methyl-4,5,6,7-tetrahydropyrazolo[1,5-a]pyridin-3-yl)-1H-pyrazolo[3,4-b]pyridine], the figures for the pIC50 in experiment [1] and in experiment [2] were 8.22 and 8.30, respectively.

`Cc1cnn2ccc(-c3c(-c4ccc(F)cn4)nn4c3COC(C)(C)C4)cc12` [Example 383, 2-(5-Fluoro-2-pyridyl)-6,6-dimethyl-3-(3-methylpyrazolo[1,5-a]pyridin-5-yl)-4,7-dihydropyrazolo[5,1-c][1,4]oxazine]: the pIC50 in experiment [1] was 5.98; in experiment [2] it was 7.70.

`Fc1ccc(-c2nn3c(c2-c2ccnc4[nH]c(C(F)F)cc24)COCC3)nc1` [Example 75, 3-(2-(Difluoromethyl)-1H-pyrrolo[2,3-b]pyridin-4-yl)-2-(5-fluoropyridin-2-yl)-6,7-dihydro-4H-pyrazolo[5,1-c][1,4]oxazine]: the pIC50 in experiment [1] was below 5.00; in experiment [2] it was 7.82.

As for `Cc1cc(-c2c(-c3ccc(F)cc3)nn3c2[C@H]2CC[C@@H]3C2)c2cn[nH]c2n1` (single isomer, unassigned) [Example 365, (4*S,7*R)-2-(4-Fluorophenyl)-3-(6-methyl-1H-pyrazolo[3,4-b]pyridin-4-yl)-4,5,6,7-tetrahydro-4,7-methanopyrazolo[1,5-a]pyridine], the negative logarithm of the IC50 (pIC50) in experiment [1] was 8.10; in experiment [2] it was 9.00.

Take `Fc1ccc(-c2nn3c(c2-c2ccn4nccc4c2)OCC2(CC2)C3)cc1` [Example 466, 2′-(4-Fluorophenyl)-3′-(pyrazolo[1,5-a]pyridin-5-yl)-5′H,7′H-spiro[cyclopropane-1,6′-pyrazolo[5,1-b][1,3]oxazine]]: the results for the pIC50 in experiment [1] and in experiment [2] were 7.62 and 7.92, respectively.

On to `Fc1ccc(-c2nn3c(c2-c2ccn4nccc4c2)OCCC3)nc1` [Example 440, 2-(5-Fluoropyridin-2-yl)-3-(pyrazolo[1,5-a]pyridin-5-yl)-6,7-dihydro-5H-pyrazolo[5,1-b][1,3]oxazine], for which the figures for the negative logarithm of the IC50 (pIC50) in experiment [1] and in experiment [2] were 6.29 and 7.36, respectively.

In the case of `CC1(C)Cn2nc(-c3ccc(F)cn3)c(-c3cc(CCC(F)(F)F)nc4[nH]ncc34)c2CO1` [Example 391, 2-(5-Fluoro-2-pyridyl)-6,6-dimethyl-3-[6-(3,3,3-trifluoropropyl)-1H-pyrazolo[3,4-b]pyridin-4-yl]-4,7-dihydropyrazolo[5,1-c][1,4]oxazine], the figures for the pIC50 in experiment [1] and in experiment [2] were 5.27 and 6.59, respectively.

Turning to `Fc1ccc(-c2nn3c(c2-c2c(F)cnc4[nH]ncc24)CC[C@H]2[C@@H]3C2(F)F)nc1` (single isomer, unassigned) [Example 358, (5a*S,6a*R)-6,6-difluoro-3-(5-fluoro-1H-pyrazolo[3,4-b]pyridin-4-yl)-2-(5-fluoropyridin-2-yl)-5,5a,6,6a-tetrahydro-4H-cyclopropa[e]pyrazolo[1,5-a]pyridine], the negative logarithm of the IC50 (pIC50) is 7.07 in experiment [1] and 8.40 in experiment [2].

Regarding `Cc1cc(-c2c(-c3ccc(F)cc3)nn3c2CCC(F)(F)C3)c2cn[nH]c2n1` [Example 43, 4-[6,6-Difluoro-2-(4-fluorophenyl)-5,7-dihydro-4H-pyrazolo[1,5-a]pyridin-3-yl]-6-methyl-1H-pyrazolo[3,4-b]pyridine], the values for the pIC50 in experiment [1] and in experiment [2] were 7.92 and 8.70, respectively.

Take `Cc1nc(-c2c(-c3ccc(F)cc3)nn3c2OCC2(CC2)C3)c2cn[nH]c2n1` [Example 465, 2′-(4-Fluorophenyl)-3′-(6-methyl-1H-pyrazolo[3,4-d]pyrimidin-4-yl)-5′H,7′H-spiro[cyclopropane-1,6′-pyrazolo[5,1-b][1,3]oxazine]]: the pIC50 in experiment [1] is 7.46; in experiment [2], 8.52.

Regarding `Fc1ccc(-c2nn3c(c2-c2ccnc4[nH]ncc24)COCC3)cc1` [Example 70, 2-(4-Fluorophenyl)-3-(1H-pyrazolo[3,4-b]pyridin-4-yl)-6,7-dihydro-4H-pyrazolo[5,1-c][1,4]oxazine], the figures for the pIC50 in experiment [1] and in experiment [2] were 7.43 and 8.70, respectively.

As to `Fc1ccc(-c2nn3c(c2-c2c(F)cnc4[nH]ncc24)CCC(F)(F)C3)cc1` [Example 280, 4-(6,6-difluoro-2-(4-fluorophenyl)-4,5,6,7-tetrahydropyrazolo[1,5-a]pyridin-3-yl)-5-fluoro-1H-pyrazolo[3,4-b]pyridine], the figures for the negative-log IC50 (pIC50) in experiment [1] and in experiment [2] were 7.72 and 8.40, respectively.

In the case of `[2H]C([2H])([2H])C1(C([2H])([2H])[2H])Cc2c(-c3ccnc4[nH]ncc34)c(-c3ccc(F)cc3)nn2C1` [Example 241, 4-[2-(4-Fluorophenyl)-5,5-bis(methyl-d3)-4,6-dihydropyrrolo[1,2-b]pyrazol-3-yl]-1H-pyrazolo[3,4-b]pyridine], the pIC50 in experiment [1] was 8.15; in experiment [2], 8.70.

Turning to `CC1(C)Cc2c(-c3cc(C(F)F)nc4[nH]ncc34)c(-c3ccc(F)cn3)nn2C1` [Example 239, 6-(Difluoromethyl)-4-[2-(5-fluoro-2-pyridyl)-5,5-dimethyl-4,6-dihydropyrrolo[1,2-b]pyrazol-3-yl]-1H-pyrazolo[3,4-b]pyridine], the pIC50 in experiment [1] was 6.94; in experiment [2], 8.40.

Turning to `Cc1cc(-c2c(-c3ccc(F)cc3)nn3c2COC[C@H]3C)c2cn[nH]c2n1` (single isomer, unassigned) [Example 94, (*R)-2-(4-Fluorophenyl)-7-methyl-3-(6-methyl-1H-pyrazolo[3,4-b]pyridin-4-yl)-6,7-dihydro-4H-pyrazolo[5,1-c][1,4]oxazine], the pIC50 is 7.04 in experiment [1] and 8.15 in experiment [2].

These data come from patent publication US20230339970A1, “CASEIN KINASE 1 DELTA MODULATORS” (priority 2020, published 2023).
